The values below come from PubChem BioAssay (NCI).

Test systems include HCT-15 colon; CAKI-1 renal; SK-OV-3 ovarian; OVCAR-3 ovarian; SN12C renal; DMS 114 small cell lung; SW-620 colon; CCRF-CEM leukemia; EKVX NSCLC; DMS 273 small cell lung.
Common to all, as to assay: growth of human tumour cells (NCI), 48 h

Each structure is given as a SMILES string. Several values for one entry are separate records, joined by “and”; a condition that tells them apart may be missing. Identical values can stand only once.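 Five concentrations, 48 hours, 96-well plates. GI50 = concentration required for 50% inhibition of growth. TGI denotes the concentration required for complete inhibition of growth.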

For `COc1cc(Cc2cc(OC)c(OC)c(OC)c2)ccc1O`, the TGI in the test with HCT-15 colon is above 100 µM; in the test with CAKI-1 renal it was above 100 µM; in the test with SK-OV-3 ovarian, above 100 µM; in the test with OVCAR-3 ovarian, 52.4 µM; in the test on SN12C renal, above 100 µM; with DMS 114 small cell lung, above 100 µM. Further, the TGI in the test with SW-620 colon, with CCRF-CEM leukemia and in the test on EKVX NSCLC was above 100 µM throughout.

As to `CSc1nc(NC2OC(COC(C)=O)C(OC(C)=O)C(OC(C)=O)C2OC(C)=O)c2c(OC(C)=O)c(C)c(=O)oc2n1` (stereo not given), the TGI with HCT-15 colon, in the test on CAKI-1 renal, in the test on SK-OV-3 ovarian, in the test with OVCAR-3 ovarian, in the test on SN12C renal and in the test with DMS 114 small cell lung was above 100 µM each time. Moreover, the TGI in the test on SW-620 colon, in the test on CCRF-CEM leukemia and in the test on EKVX NSCLC was above 100 µM each time.

For `O=C1C2=C(CC3C(C2)C3(Br)Br)C(=O)C2=C1CC1C(C2)C1(Br)Br` (stereo not given), the TGI in the test with HCT-15 colon, in the test on CAKI-1 renal, in the test on SK-OV-3 ovarian, with OVCAR-3 ovarian, with SN12C renal and with CCRF-CEM leukemia was above 100 µM in each case. For the same molecule, the TGI in the test with DMS 273 small cell lung and with EKVX NSCLC was above 100 µM in each case.

Turning to `Cc1cccc(C(C)(C)C)c1NC(=O)CCc1n[nH]c(=S)o1`, the TGI is 49 µM with HCT-15 colon; above 100 µM in the test on CAKI-1 renal; above 100 µM with SK-OV-3 ovarian; above 100 µM in the test with OVCAR-3 ovarian; above 100 µM in the test on SN12C renal; above 100 µM in the test with DMS 114 small cell lung. In addition, the TGI is 34.1 µM in the test on SW-620 colon, above 100 µM in the test on CCRF-CEM leukemia, above 100 µM with DMS 273 small cell lung and above 100 µM with EKVX NSCLC.

In the case of `COc1ccc(C(=O)O)c(Cc2cccc3ccccc23)c1`, the TGI in the test with HCT-15 colon, in the test with CAKI-1 renal, in the test on SK-OV-3 ovarian, with OVCAR-3 ovarian, in the test with SN12C renal and in the test on DMS 114 small cell lung was above 100 µM throughout. Also, the TGI in the test on SW-620 colon, in the test with CCRF-CEM leukemia, in the test with DMS 273 small cell lung and in the test on EKVX NSCLC was above 100 µM in each case.

With `NC1C2(CCCCCC2)NC(=O)C12CCCCCC2` (stereo not given), the TGI in the test with HCT-15 colon, with CAKI-1 renal, in the test on SK-OV-3 ovarian, with OVCAR-3 ovarian, with SN12C renal and with DMS 114 small cell lung was above 100 µM each time. Also, the TGI with SW-620 colon, with CCRF-CEM leukemia, in the test with DMS 273 small cell lung and in the test with EKVX NSCLC was above 100 µM throughout.

As to `Cc1cc(C2CCCCC2)n(O)c(=O)c1`, the GI50 is 0.655 µM in the test with HCT-15 colon; 1.8 µM with CAKI-1 renal; 1.91 µM with SK-OV-3 ovarian; 0.521 µM with OVCAR-3 ovarian; 1.45 µM with SN12C renal; 3.38 µM with SW-620 colon. In the test with EKVX NSCLC, the GI50 is 2.4 µM. In addition, the TGI is > 100 µM and 38.1 µM with HCT-15 colon; 21.4 µM in the test with CAKI-1 renal; above 100 µM in the test on SK-OV-3 ovarian; 54 µM with OVCAR-3 ovarian; above 100 µM in the test on SN12C renal; above 100 µM in the test with DMS 114 small cell lung. Besides, the results for the TGI in the test with SW-620 colon, with CCRF-CEM leukemia and with EKVX NSCLC were above 100 µM, 74.5 µM and above 100 µM, respectively.

As to `CCC(C)(O)c1cn(-c2cccc(S(=O)(=O)O)c2)nn1` (stereo not given), the TGI with HCT-15 colon, with CAKI-1 renal, in the test on SK-OV-3 ovarian, in the test on OVCAR-3 ovarian, with SN12C renal and with DMS 114 small cell lung was above 100 µM each time. In addition, the TGI in the test on SW-620 colon, in the test on CCRF-CEM leukemia, in the test on DMS 273 small cell lung and in the test with EKVX NSCLC was above 100 µM in each case.

In the case of `N#Cc1cnsc1`, the TGI in the test with HCT-15 colon, with CAKI-1 renal, with SK-OV-3 ovarian, in the test with OVCAR-3 ovarian, in the test with SN12C renal and in the test on DMS 114 small cell lung was above 100 µM throughout. Moreover, the TGI with SW-620 colon, in the test on CCRF-CEM leukemia, in the test with DMS 273 small cell lung and with EKVX NSCLC was above 100 µM in each case.

On to `Nc1c(-c2ccc(Br)cc2)[n+]([O-])c2ccccc2[n+]1[O-]`, for which the TGI with HCT-15 colon, with CAKI-1 renal, in the test with SK-OV-3 ovarian, with OVCAR-3 ovarian, in the test with SN12C renal and in the test on DMS 114 small cell lung was above 100 µM each time. Besides, the TGI in the test on SW-620 colon, in the test with DMS 273 small cell lung and in the test on EKVX NSCLC was above 100 µM in each case.

Turning to `NCCCNCCSSCCCCS(=O)O`, the TGI was above 100 µM in the test with HCT-15 colon; above 100 µM in the test with CAKI-1 renal; above 100 µM in the test with SK-OV-3 ovarian; 44.8 µM in the test with OVCAR-3 ovarian; above 100 µM with SN12C renal; above 100 µM in the test on DMS 114 small cell lung. Besides, the TGI in the test on SW-620 colon, in the test with DMS 273 small cell lung and in the test with EKVX NSCLC was above 100 µM throughout.

As for `Cc1ccc(NC(=O)C2C(=O)N(c3ccc(C)c(C)c3)C(=O)/C2=N/O)cc1C` (stereo not given), the TGI in the test with HCT-15 colon, in the test on CAKI-1 renal, in the test with SK-OV-3 ovarian, in the test on OVCAR-3 ovarian, in the test with SN12C renal and in the test with DMS 114 small cell lung was above 100 µM in each case. Moreover, the TGI in the test on SW-620 colon was 37.2 µM; with CCRF-CEM leukemia, above 100 µM; in the test on DMS 273 small cell lung, above 100 µM; in the test with EKVX NSCLC, above 100 µM.

With `CC(C)=[CH][Sb]([Br])([CH]=C(C)C)([CH]=C(C)C)[CH]=C(C)C`, the GI50 with HCT-15 colon is above 100 µM; with CAKI-1 renal it was 46.1 µM; in the test with SK-OV-3 ovarian it was 2.5 µM; in the test on OVCAR-3 ovarian, 2.44 µM; in the test with SN12C renal, 24.7 µM; with DMS 114 small cell lung, 1.61 µM. For the same molecule, the GI50 in the test with SW-620 colon was 26.4 µM; with CCRF-CEM leukemia it was 4.8 µM; with DMS 273 small cell lung, 5.98 µM; with EKVX NSCLC it was 4.88 µM. For the same molecule, the TGI was above 100 µM in the test on HCT-15 colon; above 100 µM in the test with CAKI-1 renal; 8.83 µM with SK-OV-3 ovarian; 59.8 µM in the test on OVCAR-3 ovarian; above 100 µM in the test on SN12C renal; 4.85 µM in the test on DMS 114 small cell lung. The TGI is above 100 µM with SW-620 colon, above 100 µM in the test on CCRF-CEM leukemia, 56.8 µM with DMS 273 small cell lung and 88.6 µM in the test with EKVX NSCLC.
